Among the data in PubChem BioAssay (NCI) are TGI and GI50 values, retold here.

Holding throughout (assay): NCI tumour cell line growth inhibition, 48 h
Experiment [1] deals with CCRF-CEM leukemia.
Experiment [2] relates to DU-145 prostate.
Experiment [3] relates to LOX IMVI melanoma.
Experiment [4] concerns MALME-3M melanoma.
Experiment [5] deals with OVCAR-4 ovarian.
Experiment [6] has as its system OVCAR-5 ovarian.
The subject of experiment [7] is SNB-19 CNS.
The subject of experiment [8] is SNB-75 CNS.
In experiment [9] the test system is U251 CNS.
Experiment [10] relates to UACC-257 melanoma.

Several values for one entry are separate records, joined by “and”; a condition that tells them apart may be missing. Equal entries are not always repeated.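 Five compound concentrations were applied to cells in 96-well plates for 48 hours; endpoints were derived by simple linear interpolation of the resulting dose-response curve. GI50 is the concentration that inhibits growth by half. The concentration for full growth arrest is given as TGI.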

As to `Cc1cc(S(=O)(=O)/N=C(/NN)NNc2cccc(C(F)(F)F)n2)c(S)cc1Cl`, the TGI in experiment [1] was 63.6 µM; in experiment [2] it was 34.1 µM; in experiment [3], 39.7 µM; in [4] it was 42.1 µM; in experiment [5], 36 µM; in [6], 29.5 µM. The TGI in experiment [7] was determined as 68.8 µM; in experiment [8], 32 µM; in experiment [9], 33.6 µM; in experiment [10], 89.9 µM.

As for `Cc1sc2nc3n(c(=O)c2c1C)N=CN(c1ccc(F)cc1)C3`, the TGI was over 100 µM in [1]; over 100 µM in experiment [2]; over 100 µM in experiment [3]; 57.2 µM in [4]; 38.5 µM in experiment [5]; over 100 µM in experiment [6]. In addition, the TGI in experiment [7], in experiment [8], in [9] and in experiment [10] was over 100 µM each time.

Consider `O=[N+]([O-])C(Cl)=C/C(=C(\Cl)SCc1ccccc1)[N+](=O)[O-]`, for which the TGI is 18 µM in experiment [1]; over 100 µM in experiment [2]; 33.6 µM in experiment [3]; 57.8 µM in [4]; 41.2 µM in experiment [5]; 52.4 µM in experiment [6]. For the same molecule, the TGI in experiment [7] was over 100 µM; in experiment [8], over 100 µM; in [9] it was 34.9 µM; in experiment [10] it was 79.7 µM.

For `CCN1CCC(O)(/C=C/c2ccc(C(C)C)cc2)C(C(=O)/C=C/c2ccc(C(C)C)cc2)C1` (centres undefined), the TGI in [1] stood at 4.36 µM; in experiment [2] it was 9.76 µM; in experiment [3] it was 3.38 µM; in [4], 10.5 µM; in experiment [5] it was 8.71 µM; in experiment [6], 12 µM. The TGI in [7] is 15.5 µM; in experiment [8] it was 11.7 µM; in experiment [9], 7.32 µM; in experiment [10], 19.4 µM.

Regarding `Cc1ccc([N+](=O)[O-])c2c(NCC(O)CO)ccnc12` (centres undefined), the TGI in [1] is over 100 µM; in experiment [2], over 100 µM; in [3], over 100 µM; in experiment [4], 44.6 µM; in experiment [5] it was over 100 µM; in experiment [6], over 100 µM. For the same molecule, the TGI in [7], in experiment [8], in experiment [9] and in experiment [10] was over 100 µM throughout.

`OC1C[C@H](c2ccccc2)C2(C(O)c3ccccc3C2O)[C@@H](c2ccccc2)C1` (some centres undefined): the TGI in [1], in [2], in [3], in experiment [4], in [5] and in experiment [6] was over 100 µM each time. Also, the TGI in experiment [7], in [8], in experiment [9] and in [10] was over 100 µM in each case.

Turning to `O=c1c2ccccc2nc(N/N=C/c2ccccc2O)n1-c1ccccc1`, the TGI was over 100 µM in experiment [1]; over 100 µM in [2]; over 100 µM in experiment [3]; over 100 µM in [4]; 43.2 µM in experiment [5]; over 100 µM in experiment [6]. Moreover, the TGI in experiment [7], in [8], in experiment [9] and in experiment [10] was over 100 µM each time.

In the case of `C[C@H]1COC2=C1C(=O)C(=O)c1c2ccc2c1CCCC2(C)C`, the TGI was over 39.5 µM in experiment [1]; 2.08 µM in experiment [2]; 14.4 µM in [3]; 2.07 µM in experiment [4]; over 100 µM in experiment [5]; over 91.4 µM in [6]. The TGI in [7] was determined as 66.4 µM; in [8], 3.81 µM; in experiment [9] it was 27.4 µM; in experiment [10] it was 6.46 µM.

Turning to `CCC(NC1=NCCO1)c1cccs1` (centres undefined), the TGI in experiment [1] turned out to be 65.4 µM; in experiment [2] it was 28.5 µM; in experiment [3], 66.7 µM; in experiment [4] it was 25.7 µM; in experiment [5], 44.5 µM; in experiment [6], 30.7 µM. The TGI is 29.8 µM in [7], 16.9 µM in [8], 26.3 µM in experiment [9] and 35.8 µM in experiment [10].

Regarding `COc1ccc(N2NC(c3ccccc3)(c3ccccc3)C(C)C2=O)cc1` (centres undefined), the TGI in experiment [1], in experiment [2], in [3], in experiment [4], in experiment [5] and in experiment [6] was over 100 µM throughout. Also, the TGI in experiment [7], in experiment [8], in experiment [9] and in experiment [10] was over 100 µM each time.

Consider `c1ccc(CN2CCN3CCN(CC2)CCN(Cc2ccccc2)CC3)cc1`, for which the TGI in [1] was 26.1 µM; in experiment [2] it was 29.6 µM; in experiment [3], 25.7 µM; in [4], 8.01 µM; in experiment [5] it was 20.3 µM; in experiment [6] it was 28.6 µM. For the same molecule, the TGI in experiment [7] worked out at 18.7 µM; in experiment [8], 18.2 µM; in experiment [9], 15.8 µM; in [10], 8.8 µM.

For `S=c1[nH]c2ccc(I)cc2c(=S)n1Cc1ccccc1`, the TGI in experiment [1] is 6.06 µM; in experiment [2], 11.9 µM; in [3] it was 16 µM; in [4] it was 33.6 µM; in experiment [5], over 100 µM; in experiment [6], 43.9 µM. For the same molecule, the TGI in [7] stood at 48.6 µM; in experiment [8], 13.7 µM; in [9], 12.9 µM; in experiment [10], 7.34 µM.

As for `[N-]=[N+]=Nc1c([N+](=O)[O-])c(=O)n2c3c(cccc13)CCC2`, the TGI was determined as 4.98 µM in experiment [1]; 38.7 µM in [2]; 28.9 µM in experiment [3]; 4.27 µM in experiment [4]; 27 µM in [5]; 30.2 µM in [6]. For the same molecule, the TGI in experiment [7] was over 100 µM; in experiment [8], 38.1 µM; in experiment [9] it was 34.7 µM; in [10], 21.5 µM.

Consider `Cc1ccc(NC(=O)CSC(N)=O)cc1C`, for which the TGI in experiment [1], in experiment [2], in experiment [3], in experiment [4], in [5] and in experiment [6] was over 100 µM in each case. The TGI in experiment [7], in experiment [8], in experiment [9] and in experiment [10] was over 100 µM each time.

With `CN(C)/N=N/c1nc[nH]c1C(N)=O`, the TGI in [1] is 90.1 µM and > 731 µM; in [2], over 1000 µM; in [3] it was over 1000 µM; in [4] it was over 1000 µM; in experiment [5], over 1000 µM; in [6], over 1000 µM. Besides, the TGI in experiment [7] is over 1000 µM; in experiment [8] it was 82.2 µM and > 763 µM; in experiment [9] it was over 1000 µM; in experiment [10] it was over 1000 µM. Moreover, the GI50 in [2] is 51.2 µM; in experiment [3], 29.8 µM; in experiment [4], 243 µM; in experiment [5], 40.1 µM; in [6] it was over 788 µM; in experiment [7], over 85.3 µM. For the same molecule, the GI50 in [8] was 126 µM; in experiment [9] it was 71.5 µM; in [10] it was 225 µM.

As for `CN(C)CCCNCc1cccc2ccccc12`, the TGI in experiment [1], in experiment [2], in experiment [3], in experiment [4], in [5] and in experiment [6] was over 100 µM each time. For the same molecule, the TGI in [7], in experiment [8], in experiment [9] and in experiment [10] was over 100 µM throughout.

`CC(C)(C)CC(C)(C)c1ccc(O)c(C[N+](C)(C)[O-])c1`: the TGI in experiment [1], in experiment [2], in experiment [3], in experiment [4], in [5] and in [6] was over 100 µM throughout. Besides, the TGI in experiment [7], in experiment [8], in [9] and in [10] was over 100 µM in each case.

In the case of `O=C(O)C(=O)/C=C(\O)c1ccc(Br)cc1`, the TGI in experiment [1], in experiment [2], in experiment [3], in [4], in [5] and in experiment [6] was over 100 µM in each case. For the same molecule, the TGI in experiment [7], in experiment [8], in experiment [9] and in experiment [10] was over 100 µM throughout.

In the case of `CCOC(=O)/C=C(\C(=O)OCC)n1ccc(=O)[nH]c1=O`, the TGI in [1] is 6.2 µM; in [2] it was over 76.9 µM; in experiment [3], 28.7 µM; in [4] it was 24.2 µM; in [5] it was over 52.3 µM; in [6], 34.8 µM. Further, the TGI is over 100 µM in [7], 35.3 µM in experiment [8], 32.6 µM in experiment [9] and 12.3 µM in experiment [10].

Take `O=C1C(=Cc2ccc(Cl)c(Cl)c2)C([O-])=C([P+](c2ccccc2)(c2ccccc2)c2ccccc2)C([O-])=C1[P+](c1ccccc1)(c1ccccc1)c1ccccc1`: the TGI was 5.6 µM in experiment [1]; 28.1 µM in experiment [2]; 2.67 µM in experiment [3]; 4.9 µM in [4]; 10.4 µM in experiment [5]; 12.6 µM in experiment [6]. In addition, the TGI amounted to 6.35 µM in experiment [7], 15.9 µM in [8], 6.29 µM in experiment [9] and 5.8 µM in experiment [10].

For the molecule `CCOC(=O)c1c(-c2cccc3ccccc23)c(C#N)c(=S)n(C2OC(COC(C)=O)C(OC(C)=O)C(OC(C)=O)C2OC(C)=O)c1C` (centres undefined), the TGI in experiment [1], in [2], in experiment [3], in experiment [4], in experiment [5] and in experiment [6] was over 100 µM each time. For the same molecule, the TGI in experiment [7] was over 100 µM; in [8], 87.9 µM; in [9], over 100 µM; in experiment [10] it was over 100 µM.
